How the values were obtained:
[1] = Stability in single-round infectivity assay well media; assay type: in vitro ADME; conditions: RPMI1640, 10% FBS, 50% heat-inactivated human serum, 37° C.
Method: Well media used in the single-round infectivity assays as described above, comprised of RPMI1640 medium supplemented with 10% FBS, cytokine-rich supernatant, 50% heat-inactivated human serum and HEPES buffer (12 mM). The emtricitabine test compounds were incubated in well media at 37° C. At various time points, aliquots were quenched in two volumes of ice-cold methanol. Quenched mixtures were then centrifuged at 14000 rpm for 5 minutes. The supernatant was diluted 10-fold into Tris buffer (30 mM, pH 7.4) and then analyzed via HPLC coupled with UV detection.
Stability studies indicate that both compounds 16 and 25 were hydrolyzed to the parent emtricitabine in a time-frame matching the time of pre-incubation in single-round infectivity assays. This is likely due to the presence of heat-inactivated serum still containing active esterases.

[2] = Prodrug hydrolysis in mouse plasma; assay type: in vitro ADME; conditions: 1 mM, compared with human plasma
Method: (§1) Reaction mixtures containing either mouse liver S9 (20.8 mg/mL), mouse plasma, rat liver S9 (1 mg/mL) and phosphate buffer (100 mM, pH 7.4), rat plasma, human liver S9 (1.0 mg/mL) and phosphate buffer (100 mM, pH 7.4) or human plasma were pre-incubated at 37° C. for 5 minutes. Reactions were then initiated by addition of compounds 4, 8 or 16 (1 mM in mouse, 0.5 mM in rat and human). After incubation at 37° C., aliquots are taken at each time point and quenched in two volumes of ice-cold methanol. The quenched aliquots were then centrifuged at 14000 rpm for 5 minutes. The supernatant was then diluted into phosphate buffer (30 mM, pH 7.4) to yield samples with concentrations suitable for analysis.

CD4+ T cells = assay: Viability staining (Zombie Red) in single-round infectivity assay
Method: Peripheral blood mononuclear cells were isolated from healthy blood donors using Hypaque-Ficoll gradient centrifugation. CD4+ T cells were selected by magnetic beads (Miltenyi) and activated using anti-CD3 and anti-CD28 antibodies. Activated cells were seeded onto a 96-well plate at a concentration of 1×10^5 cells/well in RPMI1640 supplemented with 10% FBS, cytokine-rich supernatant, and 50% heat-inactivated human serum. Test compounds were added at this step and maintained throughout the culture. Cells were incubated at 37° C. for 21 hours. Pseudotype (GFP-tagged) HIV was then added to the culture via spinoculation and incubated for 3 days. Cells were then washed and stained with Zombie Red viability stain. Infectivity was quantified using flow cytometry.

[3] = Prodrug hydrolysis in mouse liver S9; assay type: in vitro ADME; conditions: 1 mM, compared with human liver S9
Method: as §1

[4] = Half-life of emtricitabine amidine prodrug in human serum; assay type: in vitro ADME; conditions: normal human serum, 37° C.
Method: (§2) To evaluate the hydrolysis rates of emtricitabine amidine prodrugs, HPLC coupled with UV detection was used with the following method (0% to 100% acetonitrile in Et3NHOAc (50 mM, pH 8) gradient) over 10 minutes at a flow rate of 3 mL min^−1, held at 100% acetonitrile for 3 minutes, ramped down to 5% acetonitrile over 0.2 minutes and then held for 2.8 minutes. Normal human serum (Bioreclamation) or phosphate buffer (100 mM, pH 7.4) was pre-incubated at 37° C. for 5 minutes. Emtricitabine amidine compound 23 (1 mM) was then added and the reaction mixture was incubated at 37° C. […] The supernatant was injected onto a HPLC system for analysis, the resulting data can be seen illustrated in FIG. 13.

[5] = Half-life of emtricitabine amidine prodrug in phosphate buffer; assay type: physicochemical; conditions: Phosphate Buffer (100 mM, pH 7.4), 37° C.
Method: as §2

[6] = Half-life measurements in human plasma (HPLC-UV); assay type: in vitro ADME; conditions: Human plasma, 37° C., read-out: Half-Life (converted)
Method: (§3) To evaluate the hydrolysis rates of emtricitabine compounds 9-16, HPLC coupled with UV detection was used with the following method (0% to 100% acetonitrile in Et3NHOAc (50 mM, pH 8) gradient) over 10 minutes at a flow rate of 3 mL min^−1, held at 100% acetonitrile for 3 minutes, ramped down to 5% acetonitrile over 0.2 minutes and then held for 2.8 minutes. Male human plasma (Bioreclamation) or female human skeletal muscle S9 (7.96 mg/mL, Bioreclamation) was pre-incubated at 37° C. for 5 minutes. Compounds 9-16 (1 mM) were added and the reaction was incubated at 37° C. […] The supernatant was diluted 10 fold into Tris buffer (30 mM, pH 7.4) and injected onto the HPLC for analysis.
To evaluate the hydrolysis rates of emtricitabine trimethyl lock prodrugs, HPLC coupled with UV detection was used with the following method (0% to 100% acetonitrile in Et3NHOAc (50 mM, pH 8) gradient) over 10 minutes at a flow rate of 3 mL min^−1, held at 100% acetonitrile for 3 minutes, ramped down to 5% acetonitrile over 0.2 minutes and then held for 2.8 minutes. Human plasma (Bioreclamation) or human skeletal muscle S9 (7.96 mg/mL, Bioreclamation) was pre-incubated at 37° C. for 5 minutes. Emtricitabine trimethyl lock compound 25 (1 mM) was added and the reaction was incubated at 37° C. […] The supernatant was diluted in Tris buffer (100 mM, pH 7.4) and injected onto the HPLC for analysis. […]

[7] = Half-life measurements in human skeletal muscle S9; assay type: in vitro ADME; conditions: Human muscle S9 (7.96 mg/mL), 37° C.
Method: as §3
To evaluate the hydrolysis rates of emtricitabine trimethyl lock prodrugs, HPLC coupled with UV detection was used with the following method (0% to 100% acetonitrile in Et3NHOAc (50 mM, pH 8) gradient) over 10 minutes at a flow rate of 3 mL min^−1, held at 100% acetonitrile for 3 minutes, ramped down to 5% acetonitrile over 0.2 minutes and then held for 2.8 minutes. Human plasma (Bioreclamation) or human skeletal muscle S9 (7.96 mg/mL, Bioreclamation) was pre-incubated at 37° C. for 5 minutes. Emtricitabine trimethyl lock compound 25 (1 mM) was added and the reaction was incubated at 37° C. […] The supernatant was diluted in Tris buffer (100 mM, pH 7.4) and injected onto the HPLC for analysis.

[8] = Kinetic analysis of trimethyl lock prodrug in mouse liver S9 via UV; assay type: in vitro ADME; conditions: mouse liver S9 1.0 mg/mL
Method: The reaction is then initiated by the addition of emtricitabine trimethyl lock compound 25 (concentration of compound 25 ranging from 600 μM to 6 mM). […] The supernatant was diluted into Tris buffer (30 mM, pH 7.4) to yield concentrations appropriate for analysis and read spectrophotometrically monitoring a decrease in substrate at 312 nm.

[9] = Kinetic analysis via UV in mixed pooled gender liver S9 (10.0 mg/mL); assay type: in vitro ADME, human
Method: Reaction mixtures containing Tris buffer (30 mM, pH 7.4) and mixed pooled gender liver S9 (10.0 mg/mL) were pre-incubated at 37° C. for 5 min. […] After incubation at 37° C., aliquots were taken at each time point and quenched in two volumes of ice-cold methanol. The quenched aliquots were then centrifuged at 14000 rpm for 5 minutes. The supernatant was diluted into Tris buffer (30 mM, pH 7.4) to yield concentrations appropriate for analysis and read spectrophotometrically monitoring a decrease in substrate at 305 nm.
A reaction mixture containing Tris buffer (30 mM, pH 7.4) and mixed pooled gender liver S9 (10.0 mg/mL) was pre-incubated at 37° C. for 5 minutes. The reaction was then initiated by the addition of emtricitabine trimethyl lock compound 25 (concentration of compound 25 ranging from 100 μM to 8 mM). After incubation at 37° C., aliquots were taken at each time point and quenched in two volumes of ice-cold methanol. The quenched aliquots were then centrifuged at 14000 rpm for 5 minutes. The supernatant was diluted into Tris buffer (30 mM, pH 7.4) to yield samples having concentrations appropriate for analysis and read spectrophotometrically monitoring a decrease in substrate at 312 nm.

With `CCCCCCCCOC(=O)Nc1nc(=O)n([C@@H]2CS[C@H](CO)O2)cc1F` [Compound 16, octyl (5-fluoro-1-((2R,5S)-2-(hydroxymethyl)-1,3-oxathiolan-5-yl)-2-oxo-1,2-dihydropyrimidin-4-yl)carbamate] the half-life [1] was 18 h, the “hydrolysis rate in mouse plasma” value [2] was “dramatically enhanced relative to human plasma” and the “toxicity on CD4+ T cells (viability staining)” value (CD4+ T cells) was “little to no toxicity”. For the same molecule, the “hydrolysis rate in mouse liver S9” value [3] was “comparable in mouse and human liver S9”.
`CN(C)/C=N\c1nc(=O)n([C@@H]2CS[C@H](CO)O2)cc1F` [Compound 23, (Z)—N′-(5-fluoro-1-((2R,5S)-2-(hydroxymethyl)-1,3-oxathiolan-5-yl)-2-oxo-1,2-dihydropyrimidin-4-yl)-N,N-dimethylformimidamide] showed a half-life at 1 mM [4] of 5.8 h and a half-life at 1 mM [5] of 95 h.
In the case of `CC(=O)Oc1cc(C)cc(C)c1C(C)(C)CC(=O)Nc1nc(=O)n([C@@H]2CS[C@H](CO)O2)cc1F` [Compound 25, 2-(4-((5-fluoro-1-((2R,5S)-2-(hydroxymethyl)-1,3-oxathiolan-5-yl)-2-oxo-1,2-dihydropyrimidin-4-yl)amino)-2-methyl-4-oxobutan-2-yl)-3,5-dimethylphenyl acetate], the half-life [1] was 0.83 h, the half-life at 1 mM [6] was 0.4 h and the “toxicity on CD4+ T cells (viability staining)” value (CD4+ T cells) was “little to no toxicity”. The half-life at 1 mM [7] was 1 h, the Km ([8]; both sexes, pooled mouse liver S9, pH 7.4, 600 μM to 6 mM) was 1600 µM and the “Intrinsic Clearance” value [8] was 138.3 µL/min/mg. For the same molecule, the Vmax [8] was 13200 nmol/h/mg, the “Intrinsic Clearance” value [9] was 11.5 µL/min/mg and the Vmax [9] was 1659 nmol/h/mg. The Km ([9]; both sexes, human, pooled liver S9, pH 7.4, 100 μM to 8 mM, 312 nm) was 2400 µM.
